In patent publication US10294230B2, “3,3-difluoropiperidine carbamate heterocyclic compounds as NR2B NMDA receptor antagonists” (Rugen Holdings (Cayman) Limited, priority 2015, dated 2019):
pIC50, pKi: −log10 of the molar value.

Legend:
hERG channel = hERG channel (Homo sapiens (Human), UniProt Q12809); experiment: hERG channel inhibition, whole cell patch clamp in HEK293 cells; assay type: cell-based
Protocol: The assay was performed on hERG channel stably expressed in HEK293 cells. The cells were cultured at 37° C. in a humidified CO2 incubator in the growth medium consisting of DMEM, 10% fetal bovine serum and antibiotics. Prior to the assay, the cells were seeded onto a 12 mm PDL-coated glass coverslip and cultured in a 35 mm Petri dish. After 16 to 40 hr culture, the cover slip was transferred into the chamber of OctaFlow perfusion system (ALA Instrument) and under a constant flow of extracellular solution (140 mM NaCl, 4 mM KCl, 1 mM MgCl2, 2 mM CaCl2, 10 mM HEPES, 10 mM D-glucose, pH 7.35, osmolarity 290). Whole cell patch clamping was performed with a glass micropipette filled with intracellular solution (120 mM KCl, 1.75 mM MgCl2, 5.4 mM CaCl2, 10 mM HEPES, 10 mM EGTA, and 4 mM ATP-K2, PH 7.2, osmolarity 310). Giga-seal was maintained during the test. The voltage control and current measurement were carried out using Axon amplifier 700B, Digidata 1440A and CLAMPEX10 software (Molecular Devices). Whole-cell hERG currents were recorded following the Petroski protocol: the cell was held at −80 mV, and the voltage step jumped from −80 to 30 mV and stay for 2 sec with a 20 ms prepulse at −40 mV. After depolarization, the voltage was decreased to −40 mV and stay for 2 sec, and returned back to −80 mV. Test compound was applied by quartz capillary tubes tip (200 μm inner diameter), and the flow rate was controlled at 2-3 ml/min with OctaFlow perfusion system. Different concentrations of the compound were applied to the cells for 5 min and the hERG current was measured three times before, during and after compound treatment. The data were analyzed using Clampfit 10 software (Molecular Devices) to generate IC50 values.

[1] = test system: electroconvulsive threshold (tonic convulsions); experiment: Electroconvulsive Threshold Test (ECT); assay type: in vivo, rats; conditions: rats, 3, 10 and 30 mpk p.o., mesylate salt
Protocol: Test compound E1-8.2 was administered as the free base.
Rats were administered ECS (rectangular current: 0.6 ms pulse width, 1.5 s duration, 200 Hz) via earclip electrodes connected to a constant current shock generator (Ugo Basile: type 7801). Test compounds were administered by oral gavage (p.o.) 1 hour before the test at a dose volume of 5 mL/kg.
Treatment groups of 20 rats were exposed to ECS as follows: The first animal was exposed to 30 mA of ECS. […] (increases of 5 mA) until the first tonic convulsion was observed. Once the first tonic convulsion was observed, the intensity of ECS was decreased by 2 mA for the next animal and then decreased or increased by 2 mA from animal to animal depending on whether the previous animal convulsed or not. If the first animal did convulse (tonic convulsions) within 5 seconds, animal no2 is exposed to 25 mA, etc. . . . (decreases of 5 mA) until the absence of tonic convulsions was observed. At this point, the intensity of ECS was increased by 2 mA for the next animal and then decreased or increased by 2 mA from animal to animal depending on whether the previous animal convulsed or not. The minimum current intensity applied is 5 mA and the maximum 95 mA. The first 5 animals serve to approach threshold current and were not included in the analysis. The results are presented as the mean current intensity administered to the final 15 animals of a group. The test was performed blind. A positive percent change indicates an anticonvulsant effect. A negative percent change indicates a proconvulsant effect. The test substance was evaluated at 4 doses, typically using 0.5% dimethylsulfoxide, 4% hydroxypropyl-b-cyclodextrin water as a vehicle, and administered p.o. 60 minutes before ECS, and compared with a vehicle control group. Diazepam (16 mg/kg p.o.), administered under the same experimental conditions, was used as reference substance. The experiment included 6 groups. Data with the test substance was analyzed by comparing treated groups with vehicle control using one-way ANOVA followed by Dunnett's t tests.

human NR1/NR2B = human NR1/NR2B (Homo sapiens (Human), UniProt Q05586+Q13224); experiment: NR2B antagonist activity, Fluo-4 calcium influx in HEK293 cells; assay type: cell-based
Chain of human NR1/NR2B (Q13224 27-1484, other chains not shown): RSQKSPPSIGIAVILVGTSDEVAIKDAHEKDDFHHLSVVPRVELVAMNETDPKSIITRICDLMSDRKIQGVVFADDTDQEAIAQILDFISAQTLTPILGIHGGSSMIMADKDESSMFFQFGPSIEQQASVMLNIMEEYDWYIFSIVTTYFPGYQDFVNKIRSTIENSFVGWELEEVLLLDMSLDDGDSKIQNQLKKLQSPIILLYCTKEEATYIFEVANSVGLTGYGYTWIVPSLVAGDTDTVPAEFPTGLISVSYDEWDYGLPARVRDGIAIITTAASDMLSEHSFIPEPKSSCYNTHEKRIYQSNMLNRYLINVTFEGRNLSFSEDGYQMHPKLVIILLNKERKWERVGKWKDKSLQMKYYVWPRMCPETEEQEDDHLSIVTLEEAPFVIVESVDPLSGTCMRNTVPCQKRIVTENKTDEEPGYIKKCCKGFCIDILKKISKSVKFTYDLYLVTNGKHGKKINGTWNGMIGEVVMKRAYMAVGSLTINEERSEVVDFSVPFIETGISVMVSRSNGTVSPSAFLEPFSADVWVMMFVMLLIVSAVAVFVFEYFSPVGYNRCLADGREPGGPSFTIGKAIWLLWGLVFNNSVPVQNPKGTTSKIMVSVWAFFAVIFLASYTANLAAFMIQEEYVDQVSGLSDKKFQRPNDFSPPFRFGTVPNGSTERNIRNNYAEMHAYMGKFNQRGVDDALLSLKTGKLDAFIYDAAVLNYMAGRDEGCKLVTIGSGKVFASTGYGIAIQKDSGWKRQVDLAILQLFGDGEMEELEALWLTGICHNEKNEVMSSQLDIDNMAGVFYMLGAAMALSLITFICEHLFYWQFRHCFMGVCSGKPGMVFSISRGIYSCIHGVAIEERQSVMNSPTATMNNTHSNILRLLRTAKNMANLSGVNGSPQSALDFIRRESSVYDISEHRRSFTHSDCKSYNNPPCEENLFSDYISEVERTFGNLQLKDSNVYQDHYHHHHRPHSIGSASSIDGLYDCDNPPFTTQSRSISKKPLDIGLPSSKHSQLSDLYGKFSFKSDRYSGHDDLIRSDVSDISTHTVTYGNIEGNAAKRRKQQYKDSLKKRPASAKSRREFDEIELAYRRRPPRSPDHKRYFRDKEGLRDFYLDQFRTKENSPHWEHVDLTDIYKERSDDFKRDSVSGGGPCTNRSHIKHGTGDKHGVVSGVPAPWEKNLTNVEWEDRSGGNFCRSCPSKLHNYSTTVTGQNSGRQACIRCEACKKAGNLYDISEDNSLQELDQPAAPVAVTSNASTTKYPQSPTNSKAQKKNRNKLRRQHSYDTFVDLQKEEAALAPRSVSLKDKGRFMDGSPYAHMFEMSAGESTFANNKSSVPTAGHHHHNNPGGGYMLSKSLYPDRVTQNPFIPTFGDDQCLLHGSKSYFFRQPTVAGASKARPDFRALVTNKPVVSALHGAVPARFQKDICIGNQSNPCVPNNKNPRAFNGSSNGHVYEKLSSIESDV
Protocol: HEK293 cell lines stably expressing cloned human NR1/NR2B and NR1/NR2A, respectively, were established according to standard previously described methods (Hansen et al., Comb. Chem High Throughput Screen. 11:304, 2008). Activation of the NR2A or NR2B subtype of NMDA receptor with glutamate as an agonist and glycine co-agonist on these cells results in calcium influx, which can be monitored with fluorescent indicator Fluo-4.
For experiments, the cells were seeded onto poly-D-lysine-coated 96-well black plates with clear bottom (Corning) at a density of ˜50,000 cells/well. After overnight culture, the growth medium was removed from the wells and the cells were incubated at 37° C. for 60 min in Hanks buffer containing 4 μM fluo-4-AM (Invitrogen) and 0.1% bovine serum albumin (BSA). After dye-loading, the cells were washed three times with Hanks buffer and incubated for 10 min at room temperature with various concentrations of test compounds prepared in Hanks buffer with 0.1% BSA. The cell plates were placed onto FDSS pCell fluorescence reader (Hamamatsu). After 20 sec reading of background fluorescence, agonist glutamate at final 100 μM and co-agonist glycine at final 50 μM were added to the cells to activate the receptor, and the resulting fluorescence changes were recorded and quantified. Based on the changes in fluorescence intensity, the pharmacological effect of test compounds were analyzed and the IC50 values derived from a non-linear least squares fitting of the concentration-dependent response to a standard logistic equation using Prism (Graphpad, Inc): Amplitude=Max Amplitude/(1+(IC50/[antagonist])^n).

NR2B receptor = NR2B receptor (Rattus norvegicus (Rat), UniProt P35439+Q00960); experiment: [3H] (E)-N1-(2-methoxybenzyl)-cinnamidine radioligand binding, rat brain membranes
Chain of NR2B receptor (Q00960 27-1482, other chains not shown): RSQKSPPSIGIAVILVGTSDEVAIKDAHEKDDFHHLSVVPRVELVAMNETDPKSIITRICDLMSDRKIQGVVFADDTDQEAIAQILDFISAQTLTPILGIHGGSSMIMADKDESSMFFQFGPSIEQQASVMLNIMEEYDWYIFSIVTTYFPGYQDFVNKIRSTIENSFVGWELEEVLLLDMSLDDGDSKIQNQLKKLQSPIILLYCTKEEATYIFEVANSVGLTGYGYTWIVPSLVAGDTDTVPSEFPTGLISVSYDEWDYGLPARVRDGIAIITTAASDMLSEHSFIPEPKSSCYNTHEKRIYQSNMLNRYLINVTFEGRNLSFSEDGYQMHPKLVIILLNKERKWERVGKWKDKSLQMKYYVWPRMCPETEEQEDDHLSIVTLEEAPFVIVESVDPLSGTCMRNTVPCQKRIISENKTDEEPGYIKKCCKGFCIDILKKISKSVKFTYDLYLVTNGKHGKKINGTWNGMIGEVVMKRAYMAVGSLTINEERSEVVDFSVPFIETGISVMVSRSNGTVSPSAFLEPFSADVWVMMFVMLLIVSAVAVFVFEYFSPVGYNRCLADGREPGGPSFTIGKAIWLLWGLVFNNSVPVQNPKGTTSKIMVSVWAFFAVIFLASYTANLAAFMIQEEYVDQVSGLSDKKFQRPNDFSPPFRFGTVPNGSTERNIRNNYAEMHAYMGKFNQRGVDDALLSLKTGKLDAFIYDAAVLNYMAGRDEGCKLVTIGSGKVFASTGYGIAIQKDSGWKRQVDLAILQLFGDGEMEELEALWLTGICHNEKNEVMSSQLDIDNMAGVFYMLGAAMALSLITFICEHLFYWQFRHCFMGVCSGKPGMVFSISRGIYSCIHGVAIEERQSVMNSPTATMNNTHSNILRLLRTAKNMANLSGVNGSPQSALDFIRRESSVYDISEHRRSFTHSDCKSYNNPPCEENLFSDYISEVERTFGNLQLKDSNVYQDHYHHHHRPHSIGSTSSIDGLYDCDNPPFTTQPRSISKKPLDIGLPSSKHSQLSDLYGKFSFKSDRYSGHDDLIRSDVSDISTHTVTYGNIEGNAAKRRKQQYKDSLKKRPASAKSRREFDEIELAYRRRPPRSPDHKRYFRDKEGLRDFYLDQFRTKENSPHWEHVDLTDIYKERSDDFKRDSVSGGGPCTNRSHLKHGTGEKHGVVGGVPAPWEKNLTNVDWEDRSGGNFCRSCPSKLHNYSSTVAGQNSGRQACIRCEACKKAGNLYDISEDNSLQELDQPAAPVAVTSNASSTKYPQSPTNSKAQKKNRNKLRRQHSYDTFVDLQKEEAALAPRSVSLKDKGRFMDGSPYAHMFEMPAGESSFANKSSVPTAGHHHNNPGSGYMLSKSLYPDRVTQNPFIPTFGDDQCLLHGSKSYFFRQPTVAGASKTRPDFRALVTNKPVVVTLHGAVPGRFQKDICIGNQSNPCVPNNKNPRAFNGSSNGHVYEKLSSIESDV
Protocol: (§1) This example describes NMDA receptor binding assays using two different radioligands, [^3H] […] An established binding assay using the non-selective NMDA receptor ligand [^3H] […] The binding assay method using the NR2B selective receptor ligand [^3H] […] This assay serves as a selective measure of NR2B receptor binding activity in native rat brain receptors. Briefly, the brains of Male Wistar rats were homogenized (Polytron) before centrifugation at 40,000×g for 15 minutes at 4° C. After 2 washes, the final pellet was homogenized and stored at −80° C. The protein concentration was determined by Bradford assay.
[^3H] […] Thus, using [^3H]
(§2) Test compounds were solubilized at 10 mM in DMSO. Then the dilutions were performed with a constant solvent concentration (1% DMSO) in the assay.
(§3) After incubation for 4.5 h at room temperature, the assays were filtered on GF/B filters pretreated with 0.3% (v/v) PEI with a Brandel system for [^3H] […] The experiment was performed in duplicate (n=2).

[2] = test system: pentylenetetrazole (PTZ) induced convulsions; experiment: Pentylenetetrazole (PTZ) Seizure Test; assay type: in vivo; conditions: 10 mg/kg p.o., mesylate salt
Protocol: Rats, placed in individual macrolon cages (25×19×13 cm), were injected with pentylenetetrazole (PTZ) (100 mg/kg s.c.). The occurrence and latency of clonic and tonic convulsions and death were noted over a 30 minute period. 15 rats were studied per group. The test was performed blind. […]
Compounds were evaluated typically using 0.5% dimethylsulfoxide, 4% hydroxypropyl-b-cyclodextrin water as a vehicle at 1 or more doses (e.g., 1, 3 and 10 mg/kg), administered p.o. 30 minutes before PTZ, and compared with a vehicle control group. Diazepam (16 mg/kg p.o.), administered 60 minutes before PTZ, was used as reference substance. The experiment was performed over 2 separate sub-experiments with N=7 to 8 animals per group and per sub-experiment. Quantitative data (latencies) with the test substance was analyzed by comparing treated groups with vehicle control using Kruskal-Wallis test followed by Mann-Whitney U test. Quantitative data with the reference substance was analyzed using Mann-Whitney U test. Quantal data (frequencies) was analyzed by comparing treated groups with vehicle control using Fisher's Exact Probability tests (*=p<0.05; **=p<0.01; ***=p<0.001).

CYP2D6 = CYP2D6 (Homo sapiens (Human), UniProt P10635); experiment: CYP P450 enzyme inhibition, pooled human liver microsome; assay type: in vitro ADME; conditions: 10 μM, pooled HLM, dextromethorphan 5 μM
Chain of CYP2D6 (P10635 whole entry): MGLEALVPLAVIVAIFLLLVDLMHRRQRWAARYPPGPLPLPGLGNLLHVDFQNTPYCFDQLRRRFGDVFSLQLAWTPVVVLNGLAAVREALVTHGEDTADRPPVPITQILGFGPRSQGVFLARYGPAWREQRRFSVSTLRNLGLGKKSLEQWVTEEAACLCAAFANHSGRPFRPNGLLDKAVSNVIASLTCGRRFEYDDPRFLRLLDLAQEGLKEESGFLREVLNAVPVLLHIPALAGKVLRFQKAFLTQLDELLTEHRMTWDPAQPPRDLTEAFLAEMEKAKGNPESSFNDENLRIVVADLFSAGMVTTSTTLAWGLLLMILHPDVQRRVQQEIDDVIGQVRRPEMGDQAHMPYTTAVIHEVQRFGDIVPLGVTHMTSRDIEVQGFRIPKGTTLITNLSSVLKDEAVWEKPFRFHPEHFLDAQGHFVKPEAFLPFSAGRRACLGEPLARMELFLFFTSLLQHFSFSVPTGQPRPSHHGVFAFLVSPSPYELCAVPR
Protocol: Those CYP isoforms and their corresponding probe substrates are as follows: CYP1A2 (phenacetin, 30 μM), CYP2C9 (tolutamide, 100 μM), CYP2C19 (S-mephenytoin, 40 μM), CYP2D6 (dextromethorphan, 5 μM) and CYP3A4 (midazolam, 1 μM). All probe substrates were used at concentrations near or below their Kms. For experiment, a reaction mixture of test compound at 10 μM or in serial dilution, CYP probe substrate described above and 0.2 mg/mL pooled HLM in phosphate buffer, pH 7.4 in a final volume of 200 μL was pre-incubated at 37° C. for 10 minutes in triplicate. The reaction was initiated by addition of NADPH at final concentration of 1 mM. The reaction was terminated after 10 minutes (CYP1A2, CYP2D6 and CYP3A4) or 30 minutes (CYP2C9 and CYP2C19) by addition of 100 μL ice-cold acetonitrile with internal standard (IS). The samples were then centrifuged at 13,000 rpm and the supernatants were injected to LC-MS/MS (Agilent Technologies) to quantify the concentration of the specific metabolites of the probe substrates formed by individual CYP450 isoforms. The inhibition ratio is calculated as: (Mt−M0)/Mwater×100% in which Mt and M0 represent the concentrations of the specific probe substrate metabolite, which was formed by individual CYP450 isoform, at the beginning and end of the reaction in the presence of test compound; while Mwater represents the concentration of the specific metabolite at the end of the reaction in the absence of test compound. Test compound concentration-dependent response data experiments performed in triplicate.

NMDA receptor = experiment: [3H] MK-801 radioligand binding, rat brain membranes; conditions: 2 nM [3H] MK-801
Protocol: as §1, §2, §3

Chain of hERG channel (Q12809 whole entry): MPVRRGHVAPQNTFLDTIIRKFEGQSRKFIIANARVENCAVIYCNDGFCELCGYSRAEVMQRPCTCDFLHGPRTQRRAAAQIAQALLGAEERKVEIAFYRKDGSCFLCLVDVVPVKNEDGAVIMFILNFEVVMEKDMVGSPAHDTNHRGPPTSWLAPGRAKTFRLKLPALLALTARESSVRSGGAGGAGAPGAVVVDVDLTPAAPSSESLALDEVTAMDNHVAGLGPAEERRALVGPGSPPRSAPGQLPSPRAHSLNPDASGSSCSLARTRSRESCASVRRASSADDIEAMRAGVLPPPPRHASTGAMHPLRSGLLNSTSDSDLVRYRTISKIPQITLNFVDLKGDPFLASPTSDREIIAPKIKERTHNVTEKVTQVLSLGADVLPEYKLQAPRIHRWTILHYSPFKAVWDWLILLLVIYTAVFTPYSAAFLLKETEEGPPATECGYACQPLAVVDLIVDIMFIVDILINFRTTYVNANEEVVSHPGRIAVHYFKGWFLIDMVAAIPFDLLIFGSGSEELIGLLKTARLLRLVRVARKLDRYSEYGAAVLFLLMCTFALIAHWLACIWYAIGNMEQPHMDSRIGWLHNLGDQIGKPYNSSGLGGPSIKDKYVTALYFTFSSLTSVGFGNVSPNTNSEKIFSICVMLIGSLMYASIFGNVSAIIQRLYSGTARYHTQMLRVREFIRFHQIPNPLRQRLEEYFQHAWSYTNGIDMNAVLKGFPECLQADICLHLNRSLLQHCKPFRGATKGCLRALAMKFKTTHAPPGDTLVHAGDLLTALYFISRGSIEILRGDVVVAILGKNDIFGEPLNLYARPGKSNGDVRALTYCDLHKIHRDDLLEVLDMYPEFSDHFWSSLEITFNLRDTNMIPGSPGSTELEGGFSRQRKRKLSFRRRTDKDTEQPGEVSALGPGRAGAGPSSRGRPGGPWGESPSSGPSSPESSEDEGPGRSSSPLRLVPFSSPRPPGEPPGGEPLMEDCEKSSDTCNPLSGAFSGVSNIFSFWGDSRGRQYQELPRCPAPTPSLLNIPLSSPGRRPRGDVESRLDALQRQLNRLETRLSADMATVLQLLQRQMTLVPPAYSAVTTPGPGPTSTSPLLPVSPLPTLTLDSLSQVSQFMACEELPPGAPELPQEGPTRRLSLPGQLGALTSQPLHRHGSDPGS

Compound: Cc1ccc(COC(=O)N2CC[C@H](CNc3nccn4cnnc34)C(F)(F)C2)cc1 [Compound E1-1.2, (+)-R-4-methylbenzyl 4-(([1,2,4]triazolo[4,3-a]pyrazin-8-ylamino)methyl)-3,3-difluoropiperidine-1-carboxylate]
- hERG @ 10 μM (%) (hERG channel; 10 μM): 17%
- pIC50 (hERG channel; HEK293, whole cell patch clamp): 4.40
- electroconvulsive threshold, pro-/anticonvulsant activity [1]: robust anticonvulsant activity
- pIC50 (human NR1/NR2B; Table 2.1, HEK293 human NR1/NR2B, glutamate 100 μM, glycine 50 μM): 7.68
- pIC50 (human NR1/NR2B; Table 2.2): 7.68
- pIC50 (human NR1/NR2B; Table 2.3): 7.68
- displacement of [3H] (E)-N1-(2-methoxybenzyl)-cinnamidine at the NR2B receptor high affinity site (NR2B receptor; rat brain membranes): 96%
- pKi (NR2B receptor; read-out: Ki at the NR2B receptor high affinity site): 8.28
- number of rats showing tonic convulsions, change vs vehicle controls [2]: −82%
- latency to clonic convulsions, change vs vehicle controls ([2]; rats): +72%
- latency to death, change vs vehicle controls ([2]; rats): +35%
- latency to tonic convulsions, change vs vehicle controls ([2]; rats): +39%
- number of deaths, change vs vehicle controls ([2]; rats): −91%
- CYP2D6 @ 10 μM (%) (CYP2D6): 14%
- partial effect on [3H] MK-801 binding (NMDA receptor): 40%
